US5550161A, “Substituted orally effective ION chelators related to deferoxamine” (Oral-D, priority 1993, dated 1996)
Where two headings read alike, the source gives them in different places.

What was measured:
[1] = Iron excretion (urine and stool) by hypertransfused iron-overloaded rats; format: in vivo, Sprague-Dawley rats; details: for Iron excreted, GROSS Stool / Iron excreted, GROSS Urine / Iron excreted, GROSS Stool, per μmole / Iron excreted, GROSS Urine, per μmole / Iron excreted, NET Stool, per μmole / Iron excreted, NET TOTAL, per μmole / Iron excreted, NET Urine, per μmole / Iron excreted, NET Stool / Iron excreted, NET Urine: 100 mg/kg; for Iron excreted, GROSS Stool, per μmole / Iron excreted, GROSS Urine, per μmole / Iron excreted, NET Stool, per μmole / Iron excreted, NET TOTAL, per μmole / Iron excreted, NET Urine, per μmole: normalized to molar dose; for Iron excreted, NET Stool / Iron excreted, NET Urine: gross minus background; for circulation time relative to DFO: intraperitoneal, inferred from increased urinary iron excretion; for absorption and cleavage after oral administration: inferred from net iron excretion
Procedure: In this model, heat-damaged rat erythrocytes are transfused intraperitoneally (i.p.) on a daily basis.
Deferoxamine mesylate (DFO:Desferal) was obtained from the Ciba Pharmaceutical Company (Summit, N.J.) as a lyophilized powder. For administration to the hypertransfused rats, it was dissolved in physiological saline at a concentration of 10 mg/ml.
A homogeneous solution of acylated derivative was obtained by dissolving the drugs in propylene glycol at a concentration of 30 mg/ml.
Sprague-Dawley rats (60-80 g; Taconic Farms, Germantown, N.Y. (were iron overloaded via daily (5 days/week) intraperitoneal injections of heat-damaged rat erythrocytes. The red blood cells for infusion were purchased from Hilltop Lab Animals, Inc. (Scottsdale, Pa.). They were obtained from retired breeders, the donor animals being exsanguinated via cardiac puncture under CO2 anesthesia. The blood drawn into acid-citrate-dextrose containing gentamicin sulfate (25 g/ml) and shipped on wet ice by overnight express to the testing laboratory. Upon arrival the blood was stored at 4° C. for up to 7 days. Prior to infusion the red cells were slightly damaged by heating at 50° C. for 15 minutes.
The animals were placed on a low iron diet (>10 μg of Fe/g) for one week prior to screening. […] During screening the animals were placed in individual metabolic cages and urine and stool were collected daily. The daily transfusion of heat-damaged red cells was continued throughout drug testing and during intervals of rest between drug evaluations. The compounds were administered either by gavage (orally) or by intraperitoneal injection 4 to 8 hours after the animals were transfused. The dose of each drug was 100 mg/kg/day for 5 days. Urine and stool samples were collected approximately 24 hours after drug administration. They were placed in crucibles, dried at 110° C. and then ashed at 550° C. overnight. Following dissolution of the ash in 3N HCl, the iron content of the samples was determined by atomic absorption spectroscopy.
The iron-overloaded rats were divided into groups of six. Before testing any of the new compounds both positive and negative controls were evaluated. Baseline excretion of iron in the urine and stool of this series of hypertransfused rats was determined in the absence of drug administration (negative control). As a positive control, another group of six animals was given DFO intraperitoneally at a dose of 100 mg/kg (153 micromoles/kg). […] All of the drugs were evaluated both orally and intraperitoneally. The intraperitoneal effect was used to assess bioavailability.
In the prodrugs, where the hydroxamic acid moieties (iron binding sites) of DFO were blocked, effectiveness upon parenteral administration would indicate that the rat is able to metabolize the prodrug to the active species. Failure to be effective orally could then be attributed to lack of absorption. […] In order to obtain an estimate of the relative iron-chelating potency within the series, the amount of iron excreted in response to the acylated derivatives was normalized to correspond to the molar equivalent of 100 mg/kg DFO.

[2] = Intraperitoneal LD50 in Swiss-Webster mice; details: for LD50: mouse, in vivo, ip
[3] = cited from earlier work
[4] = Solubility in water and ordinary organic solvents; format: physicochemical; details: in words
[5] = ip, 100 mg/kg, DFO (historic), n=54

SMILES	Iron excreted, GROSS Stool ([1]; ip, acylated derivatives)	Iron excreted, GROSS Urine ([1]; ip, acylated derivatives)	Iron excreted, GROSS Stool, per μmole ([1]; ip)	Iron excreted, GROSS Urine, per μmole ([1]; ip)	Iron excreted, NET Stool, per μmole ([1]; ip)	Iron excreted, NET TOTAL, per μmole ([1]; ip)	Iron excreted, NET Urine, per μmole ([1]; ip)	Iron excreted, GROSS Stool ([1]; po)	Iron excreted, GROSS Urine ([1]; po)	Iron excreted, GROSS Stool, per μmole ([1]; po)	Iron excreted, GROSS Urine, per μmole ([1]; po)	Iron excreted, NET Stool, per μmole ([1]; po)	Iron excreted, NET TOTAL, per μmole ([1]; po)	Iron excreted, NET Urine, per μmole ([1]; po)	circulation time relative to DFO [1]	absorption and cleavage after oral administration ([1]; oral)	other results
CCCCCCCCCCCCCC(=O)NCCCCCN(OC(=O)CC)C(=O)CCC(=O)NCCCCCN(OC(=O)CC)C(=O)CCC(=O)NCCCCCN(OC(=O)CC)C(C)=O [MDP3, N-Myristoyl-O,O,O-tripropionyl deferoxamine]	434 µg/kg/day	134 µg/kg/day	4.06 µg/kg/day/µmol	1.25 µg/kg/day/µmol	1.88 µg/kg/day/µmol	2.62 µg/kg/day/µmol	0.74 µg/kg/day/µmol	551 µg/kg/day	88 µg/kg/day	5.15 µg/kg/day/µmol	0.82 µg/kg/day/µmol	2.97 µg/kg/day/µmol	3.28 µg/kg/day/µmol	0.31 µg/kg/day/µmol			increase of potency (absorption) on lengthening N-terminal amide from 3 to 14 carbons ([1]; oral, MDP3 vs PDP3): two-thirds
CCCCCCCC(=O)ON(CCCCCNC(=O)CCC(=O)N(CCCCCNC(=O)CCC(=O)N(CCCCCN(C(C)=O)C(=O)CCCCCCC)OC(=O)CCCCCCC)OC(=O)CCCCCCC)C(C)=O [N-acetyl-N-octanoyl-O,O,O-trioctanoyldeferoxamine]																	increase of absorption on adding an N-acyl group ([1]; oral, vs N-acetyl-O,O,O-trioctanoyldeferoxamine, earlier unpublished data): about 50%
CC(=O)N(O)CCCCCNC(=O)CCC(=O)N(O)CCCCCNC(=O)CCC(=O)N(O)CCCCCN [DFO, N'-[5-[[4-[[-5-(acetylhydroxamino)pentyl]amino]-1,4-dioxobutyl]hydroxyamino]pentyl]-N-(5-aminopentyl)-N-hydroxybutanediamide, reference compound]			5.60 µg/kg/day/µmol	1.18 µg/kg/day/µmol	3.42 µg/kg/day/µmol	4.09 µg/kg/day/µmol	0.67 µg/kg/day/µmol	398 µg/kg/day	98 µg/kg/day	2.60 µg/kg/day/µmol	0.64 µg/kg/day/µmol	0.03 µg/kg/day/µmol	0.06 µg/kg/day/µmol	0.03 µg/kg/day/µmol			LD50 [2]: 800 mg/kg; Iron excreted, NET Stool ([1]; ip, DFO (historic)): 465 µg/kg/day; Iron excreted, NET Urine ([1]; ip, DFO (historic)): 87 µg/kg/day; Iron excreted, NET Stool ([1]; po): 6 µg/kg/day; Iron excreted, NET Urine ([1]; po): 5 µg/kg/day; Iron excreted, GROSS Stool [3, 5]: 857 µg/kg/day; Iron excreted, GROSS Urine [3, 5]: 180 µg/kg/day; effectiveness of oral relative to parenteral administration ([3]; oral vs parenteral, historical data): less than 10%
CCCCC(=O)NCCCCCN(OC(=O)CCCC)C(=O)CCC(=O)NCCCCCN(OC(=O)CCCC)C(=O)CCC(=O)NCCCCCN(OC(=O)CCCC)C(C)=O [VDV3, N-Valeroyl-O,O,O-trivaleroyl deferoxamine]	966 µg/kg/day	184 µg/kg/day	8.63 µg/kg/day/µmol	1.64 µg/kg/day/µmol	6.45 µg/kg/day/µmol	7.58 µg/kg/day/µmol	1.13 µg/kg/day/µmol	599 µg/kg/day	133 µg/kg/day	5.35 µg/kg/day/µmol	1.19 µg/kg/day/µmol	3.17 µg/kg/day/µmol	3.85 µg/kg/day/µmol	0.68 µg/kg/day/µmol	circulate for a longer period of time than DFO	efficiently absorbed and subsequently cleaved	systemic toxicity ([2]; in words): lack of systemic toxicity; LD50 [2]: 800 mg/kg; relative activity among derivatives tested ([1]; in words): most active derivative tested; iron excretion relative to oral DFO ([1]; oral, vs DFO given orally): more than 60 times
CCC(=O)NCCCCCN(OC(=O)CC)C(=O)CCC(=O)NCCCCCN(OC(=O)CC)C(=O)CCC(=O)NCCCCCN(OC(=O)CC)C(C)=O [PDP3, N-Propionyl-O,O,O-tripropionyl deferoxamine]	933 µg/kg/day	179 µg/kg/day	7.29 µg/kg/day/µmol	1.40 µg/kg/day/µmol	5.11 µg/kg/day/µmol	6.00 µg/kg/day/µmol	0.89 µg/kg/day/µmol	496 µg/kg/day	99 µg/kg/day	3.88 µg/kg/day/µmol	0.77 µg/kg/day/µmol	1.70 µg/kg/day/µmol	1.96 µg/kg/day/µmol	0.26 µg/kg/day/µmol	circulate for a longer period of time than DFO	efficiently absorbed and subsequently cleaved	
CCCC(=O)NCCCCCN(OC(=O)CCC)C(=O)CCC(=O)NCCCCCN(OC(=O)CCC)C(=O)CCC(=O)NCCCCCN(OC(=O)CCC)C(C)=O [BDB3, N-Butyroyl-O,O,O-tributyryl deferoxamine]	875 µg/kg/day	174 µg/kg/day	7.35 µg/kg/day/µmol	1.46 µg/kg/day/µmol	5.17 µg/kg/day/µmol	6.12 µg/kg/day/µmol	0.95 µg/kg/day/µmol	507 µg/kg/day	91 µg/kg/day	4.26 µg/kg/day/µmol	0.76 µg/kg/day/µmol	2.08 µg/kg/day/µmol	2.33 µg/kg/day/µmol	0.25 µg/kg/day/µmol	circulate for a longer period of time than DFO	efficiently absorbed and subsequently cleaved	
CCCCCCCC(=O)NCCCCCN(O)C(=O)CCC(=O)NCCCCCN(O)C(=O)CCC(=O)NCCCCCN(O)C(C)=O [N-octanoyl-O,O,O-trihydrogendeferoxamine]																	solubility in water and ordinary organic solvents [4]: sparingly soluble
